# Source: patent US20240398783A1, “Compounds and Pharmaceutical Compositions Comprising Inhibitors of Amyloid Peptide Interactions with Glycosaminoglycans, Methods of Treatment and Use Thereof” (Gismo Therapeutics, Inc., priority 2021, published 2024)
# Where a name gives a salt, the structure may show the parent alone.
# Molecular target: Tau binding to heparin (HS-GAG) (Homo sapiens, UniProt P10636)
# Assay: Inhibition of Tau binding to immobilized heparin-BSA (ELISA)
# Design: species or system porcine
# Details: 30 μM compound; Tau, heparin-BSA; read-out: Tau/Heparin Activity (% inhibition class)
# Protocol: Porcine intestinal mucosa heparin conjugated to Bovine Serum Albumin (Heparin-BSA) was prepared as described (Najjam, S. et al. 1997, Cytokine 12, 1013-1022). Heparin is a sulfated HS-GAG and is commonly used as a HS-GAG in biochemical and binding assays (Lindahl, U. and Kjellen, L. (2013) ibid). Heparin-BSA at 0.01 mg/ml in Phosphate Buffered Saline (PBS; pH 7.4) was added to a 96 well polystyrene ELISA plate (NUNC Cat. No. 449824; 100 μl per well) and incubated Over Night (ON) at 4 degrees Celsius. For negative controls, ELISA plates were coated with BSA instead of Heparin-BSA, using the same procedure. Following the incubation, the plate was washed consecutively, by immersion, with de-ionized water and PBS (pH 7.4). The ELISA plate was then blocked with nonfat milk (2%, 200 μl per well) for 2 hours at Room Temperature (RT) with gentle shaking. Following blocking, the plate was washed with de-ionized water then PBS (pH 7.4). GBAPs were dissolved and diluted in PBS (pH 6.5, supplemented with 0.1% BSA) at desired concentrations, added to the ELISA plates containing immobilized Heparin-BSA (100 μl per well) and incubated for 2 hours at RT with gentle shaking. Following incubation, the plate was washed with de-ionized water and three times with PBS (pH 6.5) plus Tween. Bound GBAP was detected by a monoclonal antibody specific for that GBAP, followed by incubation with secondary antibody conjugated to horseradish peroxidase (HRP). Antibody was diluted in PBS (pH 6.5 supplemented with 1% BSA). Following each incubation with antibody, the plate was washed with de-ionized water and three times with PBS (pH 6.5) wash buffer containing 0.1% Tween. The peroxidase substrate chromogen, TMB (Dako Cat. No. S1599) was added (100 μl per well) to the ELISA plate and incubated at room temperature. After 5 minutes ELISA Stop Solution (hydrochloric acid 1N, sulfuric acid 3N) was added (100 μl per well) to stop the peroxidase catalyzed colorimetric reaction. The Optical Density of the samples was measured at 450 nm using an ELISA plate reader (BioTek Synergy H1). Following color development, the % inhibition compared to control (BSA-coated plates) was determined. IC-50s were calculated using GraphPad Prism software.
# The assay was performed as described in Example 43, with the following modifications. Following to coating the plates with Heparin-BSA, plates were washed as described. The compounds were dissolved in DMSO at 10 mM final concentration and further diluted prior to assay. DMSO concentration in the screening well was up to 2%. Individual compounds were co-incubated with Tau on plates containing immobilized heparin. Tau purchased from rPeptide (Cat. No. T1001) was dissolved in DMSO (Sigma Cat. No. D2650), quickly frozen and kept in aliquots at −80 degrees Celsius. Tau dissolved in PBS (pH 6.5, supplemented with BSA, 0.1%) was added to the ELISA plate (100 μl per well) and incubated for 2 hours at RT with gentle shaking. Following the incubation, the plate was washed with de-ionized water and three times with PBS (pH 6.5) plus Tween. Bound Tau was detected by anti-Tau Monoclonal Antibody D-8 (Santa Cruz Cat. No. sc-166060), followed by secondary anti-IgG antibody conjugated to HRP (R&D System, Cat. No. HAF007). Following to color development with TMB, as described in Example 43, the Optical Density of the samples was measured at 450 nm using an ELISA plate reader. Following color development, the % inhibition compared to control (no compound, DMSO control) for every compound was determined.
# An example of inhibition curve is shown in FIG. 3 for Inhibitor Compounds 3 and 6. As described in Example 43, Heparin in the form of Heparin-BSA conjugate is used as a source of HS-GAG. For each compound IC-50 value in Tau—heparin-BSA binding assay is shown in […]. In some cases IC-50 was not measured and […] at 30 μM compound concentration is shown instead. […]
# Tau binding to heparin (HS-GAG), sequence (P10636 with tags, fused parts or gaps): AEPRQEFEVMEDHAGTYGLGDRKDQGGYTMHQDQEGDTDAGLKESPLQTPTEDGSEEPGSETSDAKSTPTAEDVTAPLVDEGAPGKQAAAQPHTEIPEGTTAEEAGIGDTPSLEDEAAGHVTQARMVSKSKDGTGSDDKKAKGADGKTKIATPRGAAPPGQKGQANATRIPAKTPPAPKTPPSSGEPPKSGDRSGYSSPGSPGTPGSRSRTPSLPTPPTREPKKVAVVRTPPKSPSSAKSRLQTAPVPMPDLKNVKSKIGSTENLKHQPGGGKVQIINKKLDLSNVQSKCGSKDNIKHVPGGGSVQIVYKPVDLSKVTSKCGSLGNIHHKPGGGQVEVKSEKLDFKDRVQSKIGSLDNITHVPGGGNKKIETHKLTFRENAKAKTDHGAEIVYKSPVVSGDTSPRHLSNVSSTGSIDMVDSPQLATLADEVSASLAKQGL
row,Compound,inhibition at 30 µM [%]
1,"O=S1(=O)CCN(Cc2ccc(/C=N/Nc3ccnc4cc(F)ccc34)cc2)CC1 [Compound 10, (E)-4-(4-((2-(7-fluoroquinolin-4-yl)hydrazono)methyl)benzyl)thiomorpholine 1,1-dioxide]",< 30
2,"CN(C)Cc1cc(Nc2ccnc3cc(Cl)ccc23)ccn1 [Compound 45, 7-chloro-N-(2-((dimethylamino)methyl)pyridin-4-yl)quinolin-4-amine]",< 30
3,"C[n+]1ccc(/C=N\Nc2ccnc3ccccc23)cc1 [Compound 9, (Z)-1-methyl-4-((2-(quinolin-4-yl)hydrazono)methyl)pyridin-1-ium iodide]",< 30

# Same assay, conditions: Tau, heparin-BSA; read-out: Tau/Heparin Activity (IC-50)
row,Compound,IC50 [µM]
1,"C/C(=N\Nc1ncnc2cc(Cl)ccc12)c1ccc(-n2cc(C)nc2C)nc1 [Compound 18, (E)-7-chloro-4-(2-(1-(6-(2,4-dimethyl-1H-imidazol-1-yl)pyridin-3-yl)ethylidene)hydrazineyl)quinazoline phosphoric acid salt]",13.6
2,"Cc1cc(-n2ccnc2)ccc1/C=N/Nc1ccnc2cc(Cl)ccc12 [Compound 1, (E)-4-((E)-(4-(1H-imidazol-1-yl)-2-methylbenzylidene)hydrazono)-7-chloro-1,4-dihydroquinoline]",1.38

# Same assay, conditions: Tau/Heparin Activity (IC-50), Tau, heparin-BSA
row,Compound,IC50 [µM]
1,"Cc1ncn(-c2ccc(/C=N/Nc3ccnc4cc(Cl)ccc34)cc2)c1C [Compound 2, (E)-7-chloro-4-((E)-(4-(4,5-dimethyl-1H-imidazol-1-yl)benzylidene)hydrazono)-1,4-dihydroquinoline]",4.42
2,"CC(=NNc1ccnc2cc(Cl)ccc12)c1ccc(-n2cnc(C)c2C)nc1 [Compound 22, 7-chloro-4-(2-(1-(6-(4,5-dimethyl-1H-imidazol-1-yl)pyridin-3-yl)ethylidene)hydrazineyl)quinoline]",28.2
3,"C/C(=N\Nc1ncnc2cc(Cl)ccc12)c1cccc(CN(C)C)c1 [Compound 29, 1-(3-(1-(2-(7-chloroquinazolin-4-yl)hydrazineylidene)ethyl)phenyl)—N,N-dimethylmethanamine]",32.4
4,"C/C(=N\Nc1ncnc2cc(F)ccc12)c1ccc(-n2cc[n+](C)c2)nc1 [Compound 26, (E)-1-(5-(1-(2-(7-fluoroquinazolin-4-yl)hydrazineylidene)ethyl)pyridin-2-yl)-3-methyl-1H-imidazol-3-ium phosphoric acid salt]",17.7
5,"Clc1ccc2c(N/N=C/c3ccc(-n4cccn4)cc3)ccnc2c1 [Compound 3, (E)-4-((E)-(4-(1H-pyrazol-1-yl)benzylidene)hydrazono)-7-chloro-1,4-dihydroquinoline]",1.56
6,"C/C(=N\Nc1ncnc2cc(Cl)ccc12)c1ccc(-n2cnc(C)c2C)nc1 [Compound 16, 7-chloro-4-(2-(1-(6-(4,5-dimethyl-1H-imidazol-1-yl)pyridin-3-yl)ethylidene)hydrazineyl)quinazoline phosphate]",3.92
7,"Fc1cc(/C=N/Nc2ccnc3cc(Cl)ccc23)ccc1-n1ccnc1 [Compound 35, (E)-7-chloro-4-(2-(3-fluoro-4-(1H-imidazol-1-yl)benzylidene)hydrazineyl)quinoline hydrochloride]",41.3
8,"Clc1ccc2c(N/N=C/c3ccc(-n4ccnc4)nc3)ccnc2c1 [Compound 14, (E)-4-(2-((6-(1H-imidazol-1-yl)pyridin-3-yl)methylene)hydrazineyl)-7-chloroquinoline hydrochloride]",20.3

# Same assay, conditions: read-out: Tau/Heparin Activity (% inhibition class)
row,Compound,inhibition at 30 µM [%]
1,"COc1cc2nccc(N/N=C/c3ccc(-n4ccnc4)c(OC)c3)c2cc1OC [Compound 13, (E)-4-(2-(4-(1H-imidazol-1-yl)-3-methoxybenzylidene)hydrazineyl)-6,7-dimethoxyquinoline phosphate]",< 30
2,"C/C(=N\Nc1ncnc2cc(Cl)ccc12)c1ccc(-n2cncn2)nc1 [Compound 32, (E)-4-(2-(1-(6-(1H-1,2,4-triazol-1-yl)pyridin-3-yl)ethylidene)hydrazineyl)-7-chloroquinazoline]",< 30
3,"CN1CCN(c2cc(Nc3ccnc4cc(Cl)ccc34)ccn2)CC1 [Compound 20, 7-chloro-N-(2-(4-methylpiperazin-1-yl)pyridin-4-yl)quinolin-4-amine]",< 30
